Assay results as given in patent publication US8658604B2, “Template-fixed beta-hairpin peptidomimetics with protease inhibitory activity” (Polyphor Ltd, priority 2005, dated 2014).
Like-named read-outs stand apart in the source and are kept apart here. Where a SMILES comes first, the peptide text is derived from it.

Tests used:
HELA cells (Acc57) = assay: Cytotoxicity assay (MTT reduction), HELA cells; type: cell-based; conditions: Hela cells
How it was run: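 HeLa cells were grown for 24 h, then exposed to peptides at 12.5, 25 and 50 μM in triplicate for 48 h at 37 °C. MTT reduction was read at 595 nm and growth % calculated relative to time-zero wells. LC50 interpolated by linear trend at −50% growth, GI50 at 50%.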

[1] = test system: human red blood cells (hRBC); assay: Hemolysis
Experimental: The peptides were tested for their hemolytic activity against human red blood cells (hRBC). Fresh hRBC were washed three times with phosphate buffered saline (PBS) by centrifugation for 10 min at 2000×g. Peptides at a concentration of 100 μM were incubated with 20% v/v hRBC for 1 hour at 37° C. The final erythrocyte concentration was approximately 0.9×10^9 cells per ml. A value of 0% and, respectively, 100% cell lysis was determined by incubation of the hRBC in the presence of PBS alone and, respectively, 0.1% Triton X-100 in H2O. […] The 100% lysis value (OD540H20) gave an OD540 of approximately 1.3-1.8. Percent hemolysis was calculated as follows: (OD540peptide/OD540H20)×100%.

[2] = molecular target: Trypsin, from human pancreas (Homo sapiens, UniProt P07477); assay: Enzymatic assay, trypsin; conditions: at 100 μM
Chymase, from human skin = molecular target: T1, Chymase, from human skin (Homo sapiens, UniProt P23946); assay: Enzymatic assay, chymase
T1 sequence (P23946 22-247): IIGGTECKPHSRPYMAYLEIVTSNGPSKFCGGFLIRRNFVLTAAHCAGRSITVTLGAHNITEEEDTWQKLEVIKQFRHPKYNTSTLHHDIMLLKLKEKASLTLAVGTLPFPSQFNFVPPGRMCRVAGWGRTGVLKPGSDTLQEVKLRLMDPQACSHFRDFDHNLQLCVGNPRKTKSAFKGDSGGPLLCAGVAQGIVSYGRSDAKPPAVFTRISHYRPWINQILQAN

[3] = molecular target: T2, Elastase from human neutrophils (Homo sapiens, UniProt P08246); assay: Enzymatic assay, elastase
T2 sequence (P08246 30-267): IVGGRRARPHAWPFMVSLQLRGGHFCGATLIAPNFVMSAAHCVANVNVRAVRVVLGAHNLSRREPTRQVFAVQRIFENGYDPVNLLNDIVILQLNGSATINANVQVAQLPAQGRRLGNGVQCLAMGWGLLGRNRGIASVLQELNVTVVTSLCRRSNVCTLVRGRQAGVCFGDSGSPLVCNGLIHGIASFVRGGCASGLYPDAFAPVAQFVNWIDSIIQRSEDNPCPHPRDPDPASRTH

[4] = molecular target: Thrombin, from Human Plasma (Homo sapiens, UniProt P00734); assay: Enzymatic assay, thrombin
[5] = test system: Tryptase, from human lung; assay: Enzymatic assay, tryptase; conditions: at 100 μM
[6] = molecular target: Urokinase from human urine (Homo sapiens, UniProt P00749); assay: Enzymatic assay, urokinase
[7] = molecular target: T3, CathepsinG, from human neutrophils (Homo sapiens, UniProt P08311); assay: Enzymatic assay, cathepsin G
T3 sequence (P08311 21-244): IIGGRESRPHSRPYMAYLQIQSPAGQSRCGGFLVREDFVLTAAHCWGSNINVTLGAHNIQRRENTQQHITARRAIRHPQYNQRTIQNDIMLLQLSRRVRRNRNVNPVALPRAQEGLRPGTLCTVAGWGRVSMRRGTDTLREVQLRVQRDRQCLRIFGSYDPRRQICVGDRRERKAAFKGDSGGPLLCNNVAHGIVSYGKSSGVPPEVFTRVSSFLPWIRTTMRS

[8] = molecular target: Chymotrypsin, from human pancreas (Homo sapiens, UniProt P17538); assay: Enzymatic assay, chymotrypsin; conditions: at 100 μM
Chymotrypsin, from human pancreas, sequence (P17538 19-263): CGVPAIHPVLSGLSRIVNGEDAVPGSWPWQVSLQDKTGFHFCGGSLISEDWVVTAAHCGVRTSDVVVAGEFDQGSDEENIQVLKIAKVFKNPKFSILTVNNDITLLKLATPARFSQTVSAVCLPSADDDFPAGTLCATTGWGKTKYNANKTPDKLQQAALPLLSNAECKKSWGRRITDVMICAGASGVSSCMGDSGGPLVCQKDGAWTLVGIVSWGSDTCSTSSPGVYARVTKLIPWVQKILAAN

[9] = molecular target: Coagulation Factor Xa, from uman plasma (Homo sapiens, UniProt P00742); assay: Enzymatic assay, coagulation factor Xa
Coagulation Factor Xa, from uman plasma, sequence (P00742 235-488 limits assumed): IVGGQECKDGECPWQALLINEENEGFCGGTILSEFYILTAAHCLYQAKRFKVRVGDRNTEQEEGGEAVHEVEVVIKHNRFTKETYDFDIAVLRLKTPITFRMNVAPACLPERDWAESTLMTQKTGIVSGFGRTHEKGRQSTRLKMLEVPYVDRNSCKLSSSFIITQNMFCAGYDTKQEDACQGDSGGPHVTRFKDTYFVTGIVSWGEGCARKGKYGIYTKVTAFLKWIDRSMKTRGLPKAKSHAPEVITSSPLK
Coagulation Factor Xa, from uman plasma, sequence (P00742 41-179 limits assumed): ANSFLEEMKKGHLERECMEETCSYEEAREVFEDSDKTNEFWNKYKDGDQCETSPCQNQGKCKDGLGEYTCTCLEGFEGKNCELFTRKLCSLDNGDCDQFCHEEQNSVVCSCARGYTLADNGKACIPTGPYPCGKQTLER

SMILES	Cytotoxicity LC50/GI50 Hela cells (HELA cells (Acc57))	Hemolysis at 100 μM % [1]	Trypsin at 100 μM % [2]	Chymase at 100 μM % (Chymase, from human skin)	IC50 ([3]; Elastase IC50)	Thrombin at 100 μM % [4]	Tryptase at 100 μM % [5]	Urokinase at 100 μM % [6]	IC50 ([7]; Cathepsin G IC50)	Chymotrypsin at 100 μM % [8]	FXa at 100 μM % [9]	IC50 ([3]; read-out: Elastase IC50)	IC50 ([7]; read-out: Cathepsin G IC50)
CCCC[C@@H]1NC(=O)[C@@H]2CCCN2C(=O)[C@@H]2CCCN2C(=O)[C@H](CC(=O)O)NC(=O)[C@H](CO)NC(=O)[C@H](CCCCN)NC(=O)[C@H]([C@@H](C)O)NC(=O)[C@@H]2CSSC[C@H](NC1=O)C(=O)N[C@@H](CCCNC(=N)N)C(=O)N1CCC[C@@H]1C(=O)N1CCC[C@H]1C(=O)N[C@@H]([C@@H](C)CC)C(=O)N2 [Ex. 19] (HELM PEPTIDE1{I.C.T.K.S.D.P.P.[Nle].C.R.[dP].P}$PEPTIDE1,PEPTIDE1,2:R3-10:R3|PEPTIDE1,PEPTIDE1,1:R1-13:R2$$$V2.0)	100 µM	0%	94.0%	26.9%	> 100 µM	11%	85.2%	4%	0.041 µM	0%	32%	–	–
CCCC[C@@H]1NC(=O)[C@@H]2CCCN2C(=O)[C@H]2CCCN2C(=O)[C@H](Cc2ccc(O)cc2)NC(=O)[C@@H]2CSSC[C@H](NC1=O)C(=O)N[C@@H]([C@@H](C)O)C(=O)N[C@@H](CCCCN)C(=O)N[C@@H](CO)C(=O)N[C@@H](CC(=O)O)C(=O)N1CCC[C@H]1C(=O)N1CCC[C@H]1C(=O)N[C@@H]([C@@H](C)CC)C(=O)N2 [Ex. 44] (HELM PEPTIDE1{[Nle].C.T.K.S.D.P.P.I.C.Y.[dP].P}$PEPTIDE1,PEPTIDE1,2:R3-10:R3|PEPTIDE1,PEPTIDE1,1:R1-13:R2$$$V2.0)	67 µM	0.1%	100%	3%	> 10 µM	9%	50%	14%	0.031 µM	24%	9%	–	–
CCCC[C@@H]1NC(=O)[C@H]([C@@H](C)O)NC(=O)[C@@H]2CSSC[C@H](NC(=O)[C@H]([C@@H](C)CC)NC(=O)[C@@H]3CCCN3C(=O)[C@@H]3CCCN3C(=O)[C@H](CC(=O)O)NC(=O)[C@H](CO)NC1=O)C(=O)N[C@@H](Cc1ccc(O)cc1)C(=O)N1CCC[C@@H]1C(=O)N1CCC[C@H]1C(=O)N[C@@H](Cc1ccccc1)C(=O)N2 [Ex. 60] (HELM PEPTIDE1{F.C.T.[Nle].S.D.P.P.I.C.Y.[dP].P}$PEPTIDE1,PEPTIDE1,2:R3-10:R3|PEPTIDE1,PEPTIDE1,1:R1-13:R2$$$V2.0)	51 µM	0%	90%	60%	–	0%	29.4%	9%	–	4%	11%	> 100 µM	0.038 µM
CC[C@H](C)[C@@H]1NC(=O)[C@H](C)NC(=O)[C@@H]2CCCN2C(=O)[C@H](CC(=O)O)NC(=O)[C@H](CO)NC(=O)[C@H](CCCCN)NC(=O)[C@H]([C@@H](C)O)NC(=O)[C@@H]2CSSC[C@H](NC1=O)C(=O)N[C@@H](CCCNC(=N)N)C(=O)N1CCC[C@@H]1C(=O)N1CCC[C@H]1C(=O)N[C@@H]([C@@H](C)CC)C(=O)N2 [Ex. 14] (HELM PEPTIDE1{I.C.T.K.S.D.P.A.I.C.R.[dP].P}$PEPTIDE1,PEPTIDE1,2:R3-10:R3|PEPTIDE1,PEPTIDE1,1:R1-13:R2$$$V2.0)	100 µM	0%	88%	42.3%	> 100 µM	8.7%	84.2%	5.4%	0.052 µM	0%	6%	–	–
CCCC[C@@H]1NC(=O)[C@@H]2CCCN2C(=O)[C@@H]2CCCN2C(=O)[C@H](CC(=O)O)NC(=O)[C@H](CO)NC(=O)[C@H](CCCCN)NC(=O)[C@H]([C@@H](C)O)NC(=O)[C@@H]2CSSC[C@H](NC1=O)C(=O)N[C@@H](Cc1ccc(O)cc1)C(=O)N1CCC[C@@H]1C(=O)N1CCC[C@H]1C(=O)N[C@@H](C1CCCCC1)C(=O)N2 [Ex. 63] (HELM PEPTIDE1{[O=C([C@@H](N[*:1])C1CCCCC1)[*:2]].C.T.K.S.D.P.P.[Nle].C.Y.[dP].P}$PEPTIDE1,PEPTIDE1,2:R3-10:R3|PEPTIDE1,PEPTIDE1,1:R1-13:R2$$$V2.0)	87 µM	0%	96%	7%	> 100 µM	1%	50%	0%	0.041 µM	11%	0%	–	–
CC[C@H](C)[C@@H]1NC(=O)[C@@H]2CCCN2C(=O)[C@@H]2CCCN2C(=O)[C@H](CC(=O)O)NC(=O)[C@H](CO)NC(=O)[C@H](CCCCN)NC(=O)[C@H]([C@@H](C)O)NC(=O)[C@@H]2CSSC[C@H](NC1=O)C(=O)N[C@@H](CC(=O)O)C(=O)N1CCC[C@@H]1C(=O)N1CCC[C@H]1C(=O)N[C@@H](C1CCCCC1)C(=O)N2 [Ex. 39] (HELM PEPTIDE1{[O=C([C@@H](N[*:1])C1CCCCC1)[*:2]].C.T.K.S.D.P.P.I.C.D.[dP].P}$PEPTIDE1,PEPTIDE1,2:R3-10:R3|PEPTIDE1,PEPTIDE1,1:R1-13:R2$$$V2.0)	98 µM	0%	94%	0%	> 100 µM	2%	34%	2%	0.038 µM	7%	0%	–	–
CC[C@H](C)[C@@H]1NC(=O)[C@@H]2CCCN2C(=O)[C@@H]2CCCN2C(=O)[C@H](CC(=O)O)NC(=O)[C@H](CO)NC(=O)[C@H](CCCCN)NC(=O)[C@H]([C@@H](C)O)NC(=O)[C@@H]2CSSC[C@H](NC1=O)C(=O)N[C@@H](CO)C(=O)N1CCC[C@@H]1C(=O)N1CCC[C@H]1C(=O)N[C@@H](Cc1ccccc1)C(=O)N2 [Ex. 4] (HELM PEPTIDE1{F.C.T.K.S.D.P.P.I.C.S.[dP].P}$PEPTIDE1,PEPTIDE1,2:R3-10:R3|PEPTIDE1,PEPTIDE1,1:R1-13:R2$$$V2.0)	100 µM	0%	96%	0%	> 100 µM	0%	0%	5.4%	0.091 µM	1.8%	2.4%	–	–
